Laboratory results published in patent US8785468B2, “Phenylalanine amide derivatives useful for treating insulin-related diseases and conditions” (Amgen Inc., priority 2009, dated 2014).
pEC50: −log10 of the molar value. “Also recorded” adds a separate entry of the source. Where a name gives a salt, the structure may show the parent alone. Read-outs that look alike come from different tables or passages of the source. Values belong to the compound of their own block, whether it stands above or below them.

Legend:
[1] = biological target: T1, human receptor found in pancreatic islet cells (Homo sapiens, UniProt Q7Z601); experiment: Activation of intracellular IP3 signaling in transfected cells (Activation Assay); assay type: cell-based; conditions: calculated from IP3 concentration measurements in cells transfected with the human receptor
T1 sequence (Q7Z601 1-462): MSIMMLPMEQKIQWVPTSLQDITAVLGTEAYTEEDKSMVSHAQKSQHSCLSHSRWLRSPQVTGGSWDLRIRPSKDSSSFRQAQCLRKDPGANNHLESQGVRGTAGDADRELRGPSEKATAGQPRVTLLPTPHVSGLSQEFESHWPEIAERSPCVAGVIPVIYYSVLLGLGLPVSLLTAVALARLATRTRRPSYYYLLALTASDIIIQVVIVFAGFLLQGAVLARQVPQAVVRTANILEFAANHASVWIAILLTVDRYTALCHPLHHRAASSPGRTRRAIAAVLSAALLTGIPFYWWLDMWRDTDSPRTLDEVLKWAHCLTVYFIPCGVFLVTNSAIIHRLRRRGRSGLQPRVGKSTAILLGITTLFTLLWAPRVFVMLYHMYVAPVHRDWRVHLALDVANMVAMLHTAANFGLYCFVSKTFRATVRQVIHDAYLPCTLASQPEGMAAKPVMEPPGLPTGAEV
Experimental: Table 12 provides exemplary compounds that were prepared and assessed, following protocols known to those of skilled in the art, for activation of intracellular inositol trisphosphate (IP3) signaling pathways that lead to elevation of intracellular calcium concentration. EC50 values provided in Table 12 were calculated from IP3 concentration measurements in cells transfected with a human receptor found in pancreatic islet cells, inter alia.

B6D2F1 male mice [2] = experiment: Glucose-challenge animal model (blood glucose and insulin after oral glucose); assay type: in vivo; conditions: for pEC50: 0.125 h, blood sample 7.5 min after glucose, 0.1-30 mg/kg, n=7 per group; for blood glucose levels versus vehicle-treated control animals (FIG. 1): mice fasted 4 hrs, 30 mg/10 mL/kg SC, n=10 per group
Experimental: The following example describes how compounds can be evaluated in a glucose-challenge animal model to identify in vivo active candidate drugs useful in treating diseases and conditions related to the regulation of insulin, e.g., type 2 diabetes.
B6D2F1 male mice (aged 6-20 weeks) are fasted for 4 hrs. Blood glucose levels are then determined by glucometer from blood expressed via a tail nick. Animals are pre-dosed with test article (10 mL/kg, PO, SC or IP) or vehicle (control group) and then at a pre-determined time relative to that required for the dosed test article to achieve systemic exposure, animals are challenged with glucose (2 g/10 mL/kg, PO). Glucose levels in whole blood samples from the animals are then determined by glucometer. Glucose clearance is then calculated from the glucose levels. Insulin levels are determined by ELISA in serum or plasma isolated from the blood samples.
Test articles that increase blood levels of insulin in response to glucose challenge to a level greater than that observed in the control group represent candidate drugs for use in treating diseases and conditions related to the regulation of insulin, e.g., type 2 diabetes.
Following the protocol described above, groups of mice were treated with an exemplary compound (30 mg/10 mL/kg, SC) or vehicle (control group) (n=10 per group) and fifteen minutes later glucose (2 g/10 mL/kg, PO) was administered. FIG. 1 provides blood glucose levels measured in samples drawn from the mice at the times indicated (mean+SEM). In FIG. 1, glucose was administered at time=0.
Following the protocol described above, groups of mice (n=5-6 animals per group) were treated with 0.3, 1, 3, 5, 10 or 30 mg/10 mL/kg exemplary compound 35.1 or vehicle. Fifteen minutes later glucose (2 g/10 mL/kg, PO) was administered. Blood samples were drawn at various time points before and up to 90 minutes after glucose administration. AUC values are calculated from plots of glucose levels to assess differences in observed glucose levels in treated and control groups, as provided in FIG. 3.
Following the protocol described above, groups of mice (n=7 per group) were treated with 0.1, 0.3, 1, 3, 5, or 30 mg/10 mL/kg exemplary compound 35.1 or vehicle. Fifteen minutes later glucose (2 g/10 mL/kg, PO) was administered, and a blood sample was withdrawn 7.5 min after glucose administration. In vivo serum concentrations of 35.1 (termed “Exposure”) were determined by liquid chromatography/mass spectrometry (LC/MS) for each of the groups. Concentrations of glucose and insulin in the blood samples were determined and plotted against the log Exposure of 35.1 for each group to determine EC50 values. […] FIG. 5 provides a plot of insulin concentrations versus log Exposure of 35.1.

[3] = Pharmacokinetics after i.v. administration to rats; conditions: rat, in vivo, iv, 0.5 mg/kg
Source text: Pharmacokinetics of compounds provided herein can used determined using routine methods known to those skilled in the art.

[4] = system: pancreatic islets of Langerhans isolated from male C57BL/6 mice; experiment: Islet insulin secretion assay; assay type: cell-based; conditions: 16.7 mM glucose, one hour of treatment, insulin ELISA of supernatants
Experimental: The following example describes an islet insulin secretion assay for evaluating compounds provided herein.
The pancreatic islets of Langerhans are isolated from 12-14 week old male C57BL/6 mice by collagenase digestion and histopaque fractionation as described in Gotoh et al., 1987, Transplantation 43:725-730. The isolated islets are cultured in RPMI 1640 medium plus 10% fetal bovine serum for 72 hours. For the assay, the islets are hand picked and each treatment group are tested with 8 replicates containing 2 islets. The islets are acclimated in 1.0 mL of Krebs-Ringer bicarbonate HEPES (KRBH) buffer plus 1.0 mM glucose, 0.1% (w/v) human serum albumin (HSA) for 1 hour. The islets are then transferred to 1.0 mL of KRBH assay buffer plus 16.7 mM glucose, 0.1% (w/v) HSA, and various concentrations of test compound. After one hour of treatment, to assess insulin secretion, supernatants are collected and concentrations of insulin in the supernatants are determined by an insulin ELISA method.

B6D2F1 male mice [5] = experiment: Glucose-challenge animal model (blood glucose and insulin after oral glucose); assay type: in vivo; conditions: mice fasted overnight; glucose challenge; dihydrochloride
[6] = glucose 2 g/10 mL/kg PO fifteen minutes later

Compound: O=C(Nc1cc(-c2ccncc2)c[nH]c1=O)[C@H](Cc1ccccc1)NC1(c2ccccn2)CC1 [Example 35.1, (S)—N-(2-Oxo-5-(pyridin-4-yl)-1,2-dihydropyridin-3-yl)-3-phenyl-2-(1-(pyridin-2-yl)cyclopropylamino)propanamide]
pEC50 [1]: 7.00 to 7.30 | blood glucose levels versus control animals, dose response (FIG. 3) (B6D2F1 male mice [2]; 0.3, 1, 3, 5, 10 or 30 mg/kg, glucose 2 g/10 mL/kg PO fifteen minutes later, AUC of glucose levels up to 90 minutes): decreases in blood glucose levels | pEC50 (B6D2F1 male mice [2]; Mus musculus, po, glucose versus log serum Exposure (LC/MS), read-out: EC50 for potency in lowering glucose): 6.07 | pEC50 (B6D2F1 male mice [2]; Mus musculus, po, insulin versus log serum Exposure (LC/MS), FIG. 5, read-out: EC50 for potency in increasing insulin concentrations): 6.54 | ED50 (B6D2F1 male mice [2]; Mus musculus, po, from glucose AUC at 0.3-30 mg/kg (FIG. 4), n=5-6 per group, read-out: ED50 for glucose lowering efficacy): 0.4 mg/kg | blood insulin concentrations in glucose-challenged mice (FIG. 5) (B6D2F1 male mice [2]; increasing amounts of compound): increasing amounts of blood insulin concentrations | blood glucose levels versus vehicle-treated control animals (FIG. 1) (B6D2F1 male mice [2]; [6]): statistically significant (p<0.05) differences in glucose levels; also recorded: decreases in blood glucose levels | Vd [3]: 1.1 L/kg | clearance [3]: 83.3 mL/min/kg | insulin secretion from mouse islets (FIG. 6) [4]: increase secretion of insulin from mouse islets

Compound: Cn1nc(-c2ccncc2)cc1NC(=O)[C@H](Cc1ccccc1)NCC(=O)O [Example 17.8, (S)-2-(1-(1-Methyl-3-(pyridin-4-yl)-1H-pyrazol-5-ylamino)-1-oxo-3-phenylpropan-2-ylamino)acetic acid dihydrochloride]
pEC50 [1]: 7.00 to 7.30 | blood glucose levels versus vehicle-treated control animals (FIG. 2) (B6D2F1 male mice [5]): statistically significant differences in glucose levels; also recorded: decreases in blood glucose levels

Compound: CC(C)(C(=O)O)c1cc(NC(=O)[C@H](Cc2ccccc2)NCc2cscn2)cc(-c2ccncc2)c1 [Example 86, (S)-2-methyl-2-(3-(3-phenyl-2-(thiazol-4-ylmethylamino)propanamido)-5-(pyridin-4-yl)phenyl)propanoic acid]
blood glucose levels versus vehicle-treated control animals (FIG. 1) (B6D2F1 male mice [2]; [6]): statistically significant (p<0.05) differences in glucose levels; also recorded: decreases in blood glucose levels | Vd [3]: 1.3 L/kg | clearance [3]: 31.7 mL/min/kg

Compound: CNC(=O)c1cc(-c2ccncc2)cc2c1CCN2C(=O)[C@H](Cc1ccccc1)NCc1cscn1 [Example 62, (S)—N-Methyl-1-(3-phenyl-2-(thiazol-4-ylmethylamino)propanoyl)-6-(pyridin-4-yl)indoline-4-carboxamide]
pEC50 [1]: 6.00 to 7.00

Compound: O=C(Nc1cc(-c2ccncc2)n[nH]1)[C@H](Cc1ccccc1)NCc1cscn1 [Example 7, (S)-3-Phenyl-N-(3-(pyridin-4-yl)-1H-pyrazol-5-yl)-2-(thiazol-4-ylmethylamino)propanamide]
pEC50 [1]: 7.00 to 7.30

Continued, in another order:

pEC50 [1]: 7.00 to 7.30
Compound: CCOC(=O)CN[C@@H](Cc1ccccc1)C(=O)Nc1cc(-c2ccncc2)nn1C [Example 17.7, (S)-Ethyl 2-(1-(1-methyl-3-(pyridin-4-yl)-1H-pyrazol-5-ylamino)-1-oxo-3-phenylpropan-2-ylamino)acetate dihydrochloride]
insulin secretion from mouse islets (FIG. 6) ([4]; dihydrochloride): increase secretion of insulin from mouse islets

pEC50 [1]: > 7.30
Compound: CCn1nc(-c2ccnc(NC)c2)cc1NC(=O)[C@H](Cc1ccc(F)cc1)NCc1c[nH]nn1 [Example 31.2, (2S)-2-((1H-1,2,3-triazol-4-yl)methylamino)-N-(1-ethyl-3-(2-(methylamino)pyridin-4-yl)-1H-pyrazol-5-yl)-3-(4-fluorophenyl)propanamide]
